Data: US6713629B2 (dated 2004)

CC1(c2ccccc2)SC(=S)N(Nc2ccccc2)C1=NOC(=O)Nc1ccc(Cl)c(Cl)c1 (stereo not shown)
melting point: 95 to 96 °C
